Assay results taken from patent publication US20220313650A1, “METHODS FOR TREATING NEURODEVELOPMENTAL DISORDERS” (The Broad Institute, Inc., priority 2019, published 2022).
“Also recorded” adds a separate entry of the source.

Assays:
[1] = system: SK channels; experiment: SK current recording in TRN neurons; assay type: cell-based, mice; conditions: in the presence of LY379268
Method: For conducting slice electrophysiology analysis, whole-cell patch-clamp recordings were performed using horizontal slices for the rebound bursting assays and angled-coronal thalamocortical slices for the synaptic optogenetics experiments (Agmon et al., 1991). 21-35 day old male C57BL6 mice and Ptchd1 Y/− (knockout) mice were used. Animals were transcardially perfused under isoflurane anesthesia with an ice-cold cutting solution (194 mM Sucrose, 30 mM NaCl, 4.5 mM KCl, 1.2 mM NaH2PO4, 10 mM Glucose, 2 mM MgCl2, 0.2 mM CaCl2, and 26 mM NaHCO3). Mice were then decapitated and the brains were carefully dissected out. Both cerebellum and olfactory bulb were removed from the brain and were placed and glued onto the stage of a Leica Vibratome with the ventral surface down and the pial surface towards the blade. […]
The channel conductance of SK channels and low-threshold T-type Ca2+ channels at different holding membrane potentials ranging from −80 mV to −50 mV in the presence or absence of SK channel blockers was evaluated in order to further determine how the activation of mGluR2/3 in TRN neurons enhanced the rebound bursting.

[2] = system: cortico-TRN synapses; experiment: Optogenetically evoked EPSCs in patched TRN neurons, cortico-TRN pathway; assay type: cell-based, mice
Method: For conducting slice electrophysiology analysis, whole-cell patch-clamp recordings were performed using horizontal slices for the rebound bursting assays and angled-coronal thalamocortical slices for the synaptic optogenetics experiments (Agmon et al., 1991). 21-35 day old male C57BL6 mice and Ptchd1 Y/− (knockout) mice were used. Animals were transcardially perfused under isoflurane anesthesia with an ice-cold cutting solution (194 mM Sucrose, 30 mM NaCl, 4.5 mM KCl, 1.2 mM NaH2PO4, 10 mM Glucose, 2 mM MgCl2, 0.2 mM CaCl2, and 26 mM NaHCO3). Mice were then decapitated and the brains were carefully dissected out. Both cerebellum and olfactory bulb were removed from the brain and were placed and glued onto the stage of a Leica Vibratome with the ventral surface down and the pial surface towards the blade. 250 micron thick slices containing the TRN were then collected and recovered in regular artificial cerebrospinal fluid (aCSF; 119 mM NaCl, 2.3 mM KCl, 1 mM NaH2PO4; 11 mM Glucose, 1.3 mM MgCl2, 2.5 mM CaCl2), 26 mM NaHCO3) heated to 32° C. for 10 minutes and then at room temperature for at least 1 hr. All buffers were continuously bubbled with 95% O2/5% C02. Slices were then transferred to a submersion recording chamber where they were perfused with aCSF at a rate of 2 ml/min at room temperature. Patch recording pipettes were pulled using a Flaming/Brown micropipette puller (Sutter Instruments) and Borosilicate glass (KG33, King Precision Glass). The DC resistances were ˜4-6 MΩ. Potassium methanesulfonate based internal solution (140 mM KMeSO3; 10 mM KCl; 10 mM HEPES; 0.1 mM EGTA; 4 mM Mg-ATP; 0.2 mM Na-GTP; 10 mM hosphocreatine) was used. Neurons were visualized using infrared differential interference contrast (IR-DIC) microscopy (Olympus, BX51W1) with an upright microscope digital camera.
To study the changes in the acute somatosensory thalamocortical or horizontal brain areas, 21-25 days old Nex-Cre or VgluT2-Cre mice were anesthetized with isoflurane while placed in a small animal stereotaxic apparatus (David Kopf Instruments, CA, USA) and were injected bilaterally with 280 nl of mcherry-dflox.hChR2.EF1.AAV1 using a Nanoject (Drummond Scientific, Broomall, Pa.) via glass pipettes with […] diameter tips in somatosensory cortex (S1) and ventrobasal thalamic complex (VB). Coordinates from the bregma for S1: AP −0.7, ML 2.4 and DV 1.2 and for VB: AP −1.6, ML 1.5 and DV 3.5. The pipette was held in the final position for 10 min after injection before withdrawal from the brain. The incision was closed with vetbond and after surgery mice were injected with analgesics (SR-Bupronex 1 mg/kg) every 72 hours or as needed. […]
After allowing 1-2 weeks for mcherry-dflox.hChR2.EF1.AAV1 expression, acute somatosensory thalamocortical or horizontal brain slices were freshly obtained for in vitro recording and optogenetic stimulation (250 um thick, thalamocortical slices containing TRN from angled-coronal sections; Agmon and Connors, 1991) for optogenetic analysis. In brief, patch clamp recordings in voltage clamp configuration were performed while the Cortico-TRN or Thalamic-TRN pathway was activated by applying a blue LED (400-450 nm) light pulses (Lumen 300-LED Fluorescence Excitation Illumination System). For synaptic stimulation, neurons were held at −70 mV while 0.1-1.5 ms flashes were delivered directly to the recorded cell soma delivered through the 40× water immersion objective. […]

[3] = system: Ptchd1 KO mice; experiment: Open field test of locomotor activity, Ptchd1 KO mice; assay type: in vivo; conditions: 90 minutes
Method: For performing the open field test, mice were allowed to habituate to the behavioral testing room for 1 hour before the experiment. The locomotor activity in mice was evaluated over a 90 minute period in an automated Omnitech Digiscan apparatus (AccuScan Instruments). Locomotor activity was assessed as total distance traveled (m). For drug treatment experiments, mice received an intraperitoneal injection 15 minutes before the assay and then where placed kindly in the left corner, head facing into the corner.
The effects of mGluR2/3 activation on the locomotor activity of WT mice and Ptchd1 mutant mice were evaluated. In brief, all mice were treated with mGluR2/3 agonist, LY379268, at three different dosages (1 mg/kg, 5 mg/kg and 10 mg/kg) for open-field testing.
Here, whether mGluR3 activation would rescue the hyperactivity phenotype of Ptchd1 KO mice was evaluated. Locomotor activity estimated as total distance travelled (in) was assessed over a 90 min period in an automated Omnitech Digiscan apparatus. For drug treatment experiments, mice were placed in the open-field arena for 30 minutes prior to Mavalon 63 (5 mg/kg and 10 mg/kg in saline; i.p.), or vehicle injections before being returned to the arena.

`N[C@@]1(C(=O)O)COC2C(C(=O)O)C21` (stereo in doubt) [LY379268, (1R,4R,5S,6R)-4-Amino-2-oxabicyclo[3.1.0] hexane-4,6-dicarboxylic acid] was tested, and the “current mediated by SK (max outward currents, SK channel conductance)” value [1] was “significantly increased”, the “paired-pulse ratio (PPR)” value ([2]; cortico-TRN synapses, before vs after bath application) was “significantly changed as well as the paired-pulse ratio; also recorded: significant changes in the size of paired-pulse ratio (PPR)” and the “amplitude of optogenetic evoked EPSCs” value ([2]; cortico-TRN, 20 Hz, LY379268 1 μM bath application) was “amplitude was significantly changed”. The total distance traveled ([3]; LY379268 5 mg/kg i.p.) was “traveled significantly less distances to a comparable level of wild type mice” and the total distance traveled ([3]; LY379268 10 mg/kg i.p.) was “traveled significantly less distances to a comparable level of wild type mice”.
